# Like-named read-outs stand apart in the source and are kept apart here.
# Test system: HCV 1a genotype replicon
# Assay: HCV replicon assay (qRT-PCR or luciferase), genotype 1a
# Assay type: cell-based
# Conditions: Hepatitis C virus
# Protocol: HCV replicon cell lines (kindly provided by R. Bartenschlager) isolated from colonies as described by Lohman et. al. (Lohman et al. (1999) Science 285: 110-113, expressly incorporated by reference in its entirety) and used for all experiments. The HCV replicon has the nucleic acid sequence set forth in EMBL Accession No.: AJ242651, the coding sequence of which is from nucleotides 1801 to 8406.
# These cell lines were maintained at 37° C., 5% CO2, 100% relative humidity in DMEM (Cat#11965-084, Invitrogen), with 10% fetal calf serum (“FCS”, Invitrogen), 1% non-essential amino acids (Invitrogen), 1% of Glutamax (Invitrogen), 1% of 100× penicillin/streptomycin (Cat#15140-122, Invitrogen) and Geneticin (Cat#10131-027, Invitrogen) at 0.75 mg/ml or 0.5 mg/ml for 11-7 and Huh-luc/neo-ET cells, respectively.
# EC50 values of single agent compounds and combinations were determined by HCV RNA detection using quantitative RT-PCR, according to the manufacturer's instructions, with a TAQMAN® One-Step RT-PCR Master Mix Reagents Kit (Cat#AB 4309169, Applied Biosystems) on an ABI Model 7500 thermocycler. The TaqMan primers used for detecting and quantifying HCV RNA were obtained from Integrated DNA Technologies. HCV RNA was normalized to GAPDH RNA levels in drug-treated cells, which is detected and quantified using the Human GAPDH Endogenous Control Mix (Applied Biosystems, AB 4310884E). Total cellular RNA is purified from 96-well plates using the RNAqueous 96 kit (Ambion, Cat# AM1812). Chemical agent cytotoxicity is evaluated using an MTS assay according to the manufacturer's directions (Promega).
# Since clinical drug resistance often develops in viral infections following single agent therapies, there is a need to assess the additive, antagonistic, or synergistic properties of combination therapies. We used the HCV replicon system to assess the potential use of the compound of the present invention or in combination therapies with Interferon alpha, cyclosporine analogs and inhibitors targeting other HCV proteins. The acute effects of a single or combinations of drugs are studied in the “Huh-luc/neo-ET” replicon with each chemical agent titrated in an X or Y direction in a 6 point two-fold dilution curve centered around the EC50 of each drug. Briefly, replicon cells are seeded at 7,000 cells per well in 90 ul DMEM (without phenol red, Invitrogen Cat.#31053-036) per well with 10% FCS, 1% non-essential amino acids, 1% of Glutamax and 1% of 100× penicillin/streptomycin and incubated overnight at 37° C., 5% CO2, 100% relative humidity. 16-20 h after seeding cells, test compounds previously solubilized and titrated in dimethyl sulfoxide (“DMSO”) from each X plate and Y plate are diluted 1:100 in DMEM (without phenol red, Invitrogen Cat.#31053-036) with 10% FCS, 1% non-essential amino acids, 1% of Glutamax and 1% of 100× penicillin/streptomycin and added directly to the 96-well plate containing cells and growth medium at a 1:10 dilution for a final dilution of compound and DMSO of 1:1000 ([…] final concentration). Drug treated cells are incubated at 37° C., 5% CO2, 100% relative humidity for 72 hours before performing a luciferase assay using 100 ul per well BriteLite Plus (Perkin Elmer) according to the manufacturer's instructions. Data analysis utilizes the method published by Prichard and Shipman (Antiviral Research, 1990. 14:181-205). Using this method, the combination data are analyzed for antagonistic, additive, or synergistic combination effects across the entire combination surface created by the diluted compounds in combination.
# The compounds of the present invention can be effective against the HCV 1b genotype. It should also be understood that the compounds of the present invention can inhibit multiple genotypes of HCV. In one embodiment compound of the present invention are active against the 1a, 1b, 2a, 2b, 3a, 4a, and 5a genotypes. […] EC50 ranges against HCV 1b and 1a are as follows: A>10 nM; B1-10 nM; C<1 nM.
# [1] = Table 12, range class, read-out: 1a EC50 Range
# [2] = Table 12, numeric values, read-out: 1a EC50
Compound,EC50 [1] [nM],EC50 [2] [nM]
COC(=O)N[C@H](C(=O)N1CC2(CC2)C[C@H]1c1ncc(-c2ccc(C#Cc3ccc4nc([C@@H]5CC6(CC6)CN5C(=O)[C@@H](NC(=O)OC)[C@@H](C)c5ccccc5)[nH]c4c3)cc2)[nH]1)C(C)C [Example 668],< 1,–
CC[C@H](C)[C@H](NC(=O)OC)C(=O)N1CCC[C@H]1c1ncc(-c2ccc(C#Cc3ccc4nc([C@@H]5CC6(CC6)CN5C(=O)[C@@H](NC(=O)OC)C(C)C)[nH]c4c3)cc2)[nH]1 [Example 673],< 1,–
COC(=O)N[C@H](C(=O)N1CCC[C@H]1c1ncc(-c2ccc(C#Cc3ccc4nc([C@@H]5CC6(CC6)CN5C(=O)[C@@H](NC(=O)OC)C(C)C)[nH]c4c3)cc2)[nH]1)c1ccccc1 [Example 595],< 1,–
COC(=O)N[C@H](C(=O)N1CC2(CC2)C[C@H]1c1ncc(-c2ccc(C#Cc3ccc4nc([C@@H]5CC6(CC6)CN5C(=O)[C@H](NC(=O)OC)c5ccsc5)[nH]c4c3)cc2)[nH]1)C(C)C [Example 581],< 1,–
COC(=O)N[C@H](C(=O)N1CC2(CC2)C[C@H]1c1ncc(-c2ccc(C#Cc3ccc4nc([C@@H]5CC6(CC6)CN5C(=O)[C@@H](NC(=O)OC)c5ccccc5)[nH]c4c3)cc2)[nH]1)c1ccccc1 [Example 609],1 to 10,–
COC(=O)N[C@H](C(=O)N1CC2(CC2)C[C@H]1c1ncc(-c2ccc(C#Cc3ccc4nc([C@@H]5CC6(CC6)CN5C(=O)[C@@H](N)C(C)C)[nH]c4c3)cc2)[nH]1)C(C)C [Example 556],> 10,–
COC(=O)N[C@H](C(=O)N1CC2(CC2)C[C@H]1c1ncc(-c2ccc(C#Cc3ccc4nc([C@@H]5CC6(CC6)CN5C(=O)[C@H](NC(=O)OC)c5ccccc5F)[nH]c4c3)cc2)[nH]1)C(C)C [Example 652],< 1,–
COC(=O)N[C@H](C(=O)N1CC2(CC2)C[C@H]1c1ncc(-c2ccc(C#Cc3ccc4nc([C@@H]5CC6(CC6)CN5C(=O)[C@H](NC(=O)OC)c5ccccc5Cl)[nH]c4c3)cc2)[nH]1)C(C)C [Example 651],< 1,–
COC(=O)N[C@H](C(=O)N1CC2(CC2)C[C@H]1c1nc2ccc(C#Cc3ccc(-c4cnc([C@@H]5CCCN5C(=O)[C@H](NC(=O)OC)c5cccs5)[nH]4)cc3)cc2[nH]1)C(C)C [Example 663],–,0.295
COC(=O)N[C@H](C(=O)N1CC2(CC2)C[C@H]1c1nc2ccc(C#Cc3ccc(-c4cnc([C@@H]5CC6(CC6)CN5C(=O)[C@@H](NC(=O)OC)C5CCOCC5)[nH]4)cc3)cc2[nH]1)C(C)C [Example 658],< 1,–
COC(=O)N[C@H](C(=O)N1CCC[C@H]1c1nc(-c2ccc(C#Cc3ccc4[nH]c([C@@H]5C[C@]6(CCCO6)CN5C(=O)[C@@H](NC(=O)OC)C(C)C)nc4c3)cc2)c[nH]1)C(C)C [Example 557],1 to 10,–
COC(=O)N[C@H](C(=O)N1CC2(CC2)C[C@H]1c1nc2ccc(C#Cc3ccc(-c4cnc([C@@H]5CCCN5C(=O)[C@H](NC(=O)OC)[C@H](C)c5ccccc5)[nH]4)cc3)cc2[nH]1)C(C)C [Example 604],> 10,–
COC(=O)N[C@H](C(=O)N1CC2(CC2)C[C@H]1c1nc2ccc(C#Cc3ccc(-c4cnc([C@@H]5CC6(CC6)CN5C(=O)[C@@H](NC(=O)OC)C(C)C)[nH]4)cc3)cc2[nH]1)c1ccccc1 [Example 592],< 1,–
COC(=O)N[C@H](C(=O)N1CC2(CC2)C[C@H]1c1nc(-c2ccc(C#Cc3ccc4[nH]c([C@@H]5CC6(CC6)CN5C(=O)[C@@H](NC(=O)OC)C(C)C)nc4c3)cc2)c(-c2ccncc2)[nH]1)C(C)C [Example 593],< 1,–
COC(=O)N[C@H](C(=O)N1CC2(CC2)C[C@H]1c1nc2ccc(C#Cc3ccc(-c4cnc([C@@H]5CC6(CC6)CN5C(=O)[C@@H](N)C(C)C)[nH]4)cc3)cc2[nH]1)C(C)C [Example 624],> 10,–
COC(=O)N[C@H](C(=O)N1CC2(CC2)C[C@H]1c1ncc(-c2ccc(C#Cc3ccc4nc([C@@H]5CC6(CC6)CN5C(=O)[C@H](NC(=O)OC)C5CCCC5)[nH]c4c3)cc2)[nH]1)C(C)C [Example 599],1 to 10,–
COC(=O)N[C@H](C(=O)N1CC2(CC2)C[C@H]1c1ncc(-c2ccc(C#Cc3ccc4nc([C@@H]5CC6(CC6)CN5C(=O)[C@H](NC(=O)OC)[C@H](C)c5ccccc5)[nH]c4c3)cc2)[nH]1)C(C)C [Example 601],> 10,–
COC(=O)N[C@H](C(=O)N1CC2(CC2)C[C@H]1c1ncc(-c2ccc(C#Cc3ccc4nc([C@@H]5CC6(CC6)CN5C(=O)[C@@H](NC(=O)OC)C5CC5)[nH]c4c3)cc2)[nH]1)C(C)C [Example 602],< 1,–
COC(=O)N[C@H](C(=O)N1CC2(CC2)C[C@H]1c1nc(-c2ccc(C#Cc3ccc4[nH]c([C@@H]5CC6(CC6)CN5C(=O)[C@@H](NC(=O)OC)C(C)C)nc4c3)cc2)c(Cl)[nH]1)C(C)C [Example 588],< 1,–
COC(=O)N[C@@H](C(=O)N1CC2(CC2)C[C@H]1c1ncc(-c2ccc(C#Cc3ccc4nc([C@@H]5CC6(CC6)CN5C(=O)[C@H](NC(=O)OC)c5cccc(F)c5)[nH]c4c3)cc2)[nH]1)c1cccc(F)c1 [Example 677],1 to 10,–
COC(=O)N[C@H](C(=O)N1CC2(CC2)C[C@H]1c1nc2ccc(C#Cc3ccc(-c4cnc([C@@H]5CCCN5C(=O)OC(C)(C)C)[nH]4)cc3)cc2[nH]1)C(C)C [Compound 666],> 10,–
COC(=O)N[C@@H](CNC(N)=O)C(=O)N1CCC[C@H]1c1ncc(-c2ccc(C#Cc3ccc4nc([C@@H]5CC6(CC6)CN5C(=O)[C@@H](NC(=O)OC)C(C)C)[nH]c4c3)cc2)[nH]1 [Example 550],1 to 10,–
COC(=O)N[C@H](C(=O)N1CCC[C@H]1c1nc(-c2ccc3cc(-c4ccc5[nH]c([C@@H]6CC7(CC7)CN6C(=O)[C@@H](NC(=O)OC)C(C)C)nc5c4)cc(F)c3c2)c[nH]1)C(C)C [Example 608],< 1,–
COC(=O)N[C@H](C(=O)N1CC2(CC2)C[C@H]1c1nc2ccc(C#Cc3ccc(-c4cnc([C@@H]5CCCN5C(=O)[C@H](NC(=O)OC)c5ccco5)[nH]4)cc3)cc2[nH]1)C(C)C [Example 682],< 1,–
COC(=O)N[C@H](C(=O)N1CC2(CC2)C[C@H]1c1nc(-c2ccc(C#Cc3ccc4[nH]c([C@@H]5CC6(CC6)CN5C(=O)[C@@H](NC(=O)OC)C(C)C)nc4c3)cc2)c(-c2ccccc2)[nH]1)C(C)C [Example 661],–,0.369
COC(=O)N[C@H](C(=O)N1CC2(CC2)C[C@H]1c1nc(-c2ccc(C#Cc3ccc4[nH]c([C@@H]5CC6(CC6)CN5C(=O)[C@@H](NC(=O)OC)C(C)C)nc4c3)cc2)c(F)[nH]1)C(C)C [Example 660],< 1,–
COC(=O)N[C@H](C(=O)N1CC2(CC2)C[C@H]1c1ncc(-c2ccc(C#Cc3ccc4nc([C@@H]5CC6(CC6)CN5C(=O)[C@@H](NC(=O)OC)C5CCCCC5)[nH]c4c3)cc2)[nH]1)C(C)C [Example 675],< 1,–
COC(=O)N[C@H](C(=O)N1CC2(CC2)C[C@H]1c1nc2ccc(C#Cc3ccc(-c4cnc([C@@H]5CCCN5C(=O)[C@@H](NC(=O)OC)C5CCCCC5)[nH]4)cc3)cc2[nH]1)C(C)C [Example 607],< 1,–
COC(=O)N[C@H](C(=O)N1CC2(CC2)C[C@H]1c1ncc(-c2ccc(C#Cc3ccc4nc([C@@H]5CC6(CC6)CN5C(=O)[C@H](NC(=O)OC)c5ccc(OC)cc5)[nH]c4c3)cc2)[nH]1)C(C)C [Example 585],1 to 10,–
CC[C@H](C)[C@H](NC(=O)OC)C(=O)N1CC2(CC2)C[C@H]1c1ncc(-c2ccc(C#Cc3ccc4nc([C@@H]5CC6(CC6)CN5C(=O)[C@@H](NC(=O)OC)C(C)C)[nH]c4c3)cc2)[nH]1 [Example 674],< 1,–

# — patent US9765087B2, “Benzimidazole derivatives” (ENANTA PHARMACEUTICALS, INC., priority 2009, dated 2017)
